Usually IC50 stands for the concentration that gives 50% inhibition.

c-kit, sequence (P10721 26-976): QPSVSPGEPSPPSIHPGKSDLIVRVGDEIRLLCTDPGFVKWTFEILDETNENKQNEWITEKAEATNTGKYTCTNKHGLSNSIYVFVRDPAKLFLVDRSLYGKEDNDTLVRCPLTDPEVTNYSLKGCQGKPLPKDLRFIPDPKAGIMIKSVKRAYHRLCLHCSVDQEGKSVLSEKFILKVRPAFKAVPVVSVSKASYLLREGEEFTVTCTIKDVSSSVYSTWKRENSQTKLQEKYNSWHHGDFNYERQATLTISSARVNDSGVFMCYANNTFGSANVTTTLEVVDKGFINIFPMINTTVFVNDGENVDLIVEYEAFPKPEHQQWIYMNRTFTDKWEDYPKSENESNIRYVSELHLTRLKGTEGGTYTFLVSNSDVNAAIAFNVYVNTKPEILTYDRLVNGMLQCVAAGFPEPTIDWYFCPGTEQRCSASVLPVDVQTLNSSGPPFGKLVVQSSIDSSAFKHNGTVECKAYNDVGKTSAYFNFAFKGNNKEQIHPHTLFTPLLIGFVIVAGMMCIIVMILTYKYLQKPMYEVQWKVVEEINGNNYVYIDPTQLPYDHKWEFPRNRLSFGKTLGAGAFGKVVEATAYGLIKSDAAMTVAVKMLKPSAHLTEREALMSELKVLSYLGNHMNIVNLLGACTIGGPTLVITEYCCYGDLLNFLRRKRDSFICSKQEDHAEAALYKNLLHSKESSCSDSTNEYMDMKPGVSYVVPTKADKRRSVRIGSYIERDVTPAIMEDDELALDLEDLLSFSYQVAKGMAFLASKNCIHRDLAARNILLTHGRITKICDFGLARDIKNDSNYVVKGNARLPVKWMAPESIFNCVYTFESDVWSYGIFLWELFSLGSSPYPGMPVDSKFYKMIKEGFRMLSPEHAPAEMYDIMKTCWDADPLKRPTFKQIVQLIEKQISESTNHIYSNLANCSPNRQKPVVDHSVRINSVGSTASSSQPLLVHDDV

The test has as its target c-kit (Homo sapiens (Human), UniProt P10721). Briefly: Mo7e cell proliferation assay (SCF dependent proliferation). The class given is cell-based. Particulars: Mo7e cells stimulated with human recombinant SCF, 48 hours, 1% FBS. The procedure:
Compounds of Formula (I) and Formula (II) provided herein were assayed to measure their capacity to inhibit c-kit and PDGFR kinases using the appropriate assay described below: c-Kit inhibition was evaluated using the Mo7e cell proliferation assay, and PDGFR inhibition was evaluated using the Rat A10 cell proliferation assay and the Human TG/HA-VSMC cell proliferation assay.
Mo7e Cell Proliferation Assay
The compounds of Table 1 and Table 2 were tested for inhibition of SCF dependent proliferation using human Mo7e cells which endogenously express c-kit in a 384 well format. […] After 48 hours of incubation at 37° C., cell viability was measured by adding 25 uL of CellTiter Glo (Promega) to the cells and the luminescence was measured by a CLIPR CCD camera (Molecular Devices).
The IC50 value is given as that concentration of the test compound in question that provoke a response halfway between the baseline and maximum responses.
Turning to `Cc1ccc(-c2noc(C3CC4(CC(=O)C4)C3)n2)cc1NC(=O)c1cnc2ccccn12` [F75, N-(2-methyl-5-(5-(6-oxospiro[3.3]heptan-2-yl)-1,2,4-oxadiazol-3-yl)phenyl)imidazo[1,2-a]pyridine-3-carboxamide], the IC50 is 17 nM.
Turning to `COCCO[C@H]1C[C@@H](c2nc(-c3ccc(C)c(NC(=O)c4cnc5ccccn45)c3)no2)C1` [F18, N-(5-(5-((1s,3s)-3-(2-methoxyethoxy)cyclobutyl)-1,2,4-oxadiazol-3-yl)-2-methylphenyl)imidazo[1,2-a]pyridine-3-carboxamide], the concentration for half-maximal inhibition (IC50) was 25 nM.
As for `Cc1ccn2c(C(=O)Nc3cc(-c4noc([C@H]5C[C@@H]5F)n4)ccc3C)cnc2c1` [F106], the figure is 52 nM.
As to `Cc1ccc(-c2noc(C3CC(F)(F)C3)n2)cc1NC(=O)c1cnc2ccc(COCCF)cn12` [F83], the IC50 stood at 29 nM.
With `Cc1ccc(-c2noc(CC3CC3)n2)cc1NC(=O)c1cnc2ccccn12` [F105] the figure was 40 nM; with `Cc1ccc(-c2noc([C@H]3C[C@](O)(C(F)(F)F)C3)n2)cc1NC(=O)c1cnc2ccc(F)cn12` [F90], 40 nM; with `Cc1ccn2c(C(=O)Nc3cc(-c4noc([C@H]5C[C@](O)(C(F)(F)F)C5)n4)ccc3C)cnc2c1` [F89], 25 nM.
With `Cc1ccn2c(C(=O)Nc3cc(-c4noc([C@@H]5C[C@H]5F)n4)ccc3C)cnc2c1` [F107] the figure was 85 nM; with `COCC1(c2nc(-c3ccc(C)c(NC(=O)c4cnc5ccc(F)cn45)c3)no2)CCC1` [F98], 86 nM.
As for `Cc1ccc(-c2noc(C3CC(F)(F)C3)n2)cc1NC(=O)c1cnc2ccc(COCC(F)F)cn12` [F77], the IC50 was found to be 32 nM.
As for `Cc1ccc(-c2noc(C3CC(F)(F)C3)n2)cc1NC(=O)c1cnc2ccc(COCCF)cn12` [F176, N-(5-(5-(3,3-difluorocyclobutyl)-1,2,4-oxadiazol-3-yl)-2-methylphenyl)-6-((2-fluoroethoxy)methyl)imidazo[1,2-a]pyridine-3-carboxamide], the figure is 67 nM; as for `CC1(C)CC(c2nc(-c3ccc(F)c(NC(=O)c4cnc5ccccn45)c3)no2)C1` [F156], 125 nM; as for `Cc1ccc(-c2noc([C@H]3C[C@@H]3F)n2)cc1NC(=O)c1cnc2ccccn12` [F110, N-(5-(5-((1R,2S)-2-fluorocyclopropyl)-1,2,4-oxadiazol-3-yl)-2-methylphenyl)imidazo[1,2-a]pyridine-3-carboxamide], 58 nM.
As for `Cc1ccc(-c2noc(C3CC(F)(F)C3)n2)cc1NC(=O)c1cnc2ccc(-c3cscn3)cn12` [F46], the IC50 is 13 nM.
Consider `Cc1ccc(-c2noc(C3CC4(CCCO4)C3)n2)cc1NC(=O)c1cnc2ccccn12` (stereo not shown) [F33], for which the IC50 stood at 88 nM.
On to `Cc1ccc(-c2noc(C3CCC(F)(F)CC3)n2)cc1NC(=O)c1cnc2ccccn12` [F5], for which the IC50 came out at 24 nM.
As for `Cc1ccc(-c2noc(C3(NC(=O)OC(C)(C)C)CC3)n2)cc1NC(=O)c1cnc2ccccn12` [F21], the figure is 89 nM.
As for `Cc1ccc(-c2noc([C@H]3C[C@@H]3F)n2)cc1NC(=O)c1cnc2ccccn12` [F91], the figure is 20 nM.
With `Cc1ccc(-c2noc(C3(C(N)=O)CC3)n2)cc1NC(=O)c1cnc2ccc(F)cn12` [F168], the IC50 came to 516 nM.
With `Cc1ccc(-c2noc(C3CC(F)(F)C3)n2)cc1NC(=O)c1cnc2cc(N3CCCC3=O)ccn12` [F76] the figure was 37 nM; with `Cc1ccc(-c2noc(C3CC(F)(F)C3)n2)cc1NC(=O)c1cnc2ccc(CCN3CCN(C)CC3)cn12` [F63, N-(5-(5-(3,3-difluorocyclobutyl)-1,2,4-oxadiazol-3-yl)-2-methylphenyl)-6-(2-(4-methylpiperazin-1-yl)ethyl)imidazo[1,2-a]pyridine-3-carboxamide], 82 nM; with `Cc1nnc(-c2ccc3ncc(C(=O)Nc4cc(-c5noc(C6CC(F)(F)C6)n5)ccc4F)n3c2)[nH]1` [F61, N-(5-(5-(3,3-difluorocyclobutyl)-1,2,4-oxadiazol-3-yl)-2-fluorophenyl)-6-(5-methyl-4H-1,2,4-triazol-3-yl)imidazo[1,2-a]pyridine-3-carboxamide], 154 nM.
With `Cc1ccc(-c2noc(C3(C(F)(F)F)CC3)n2)cc1NC(=O)c1cnc2ccccn12` [F119] the figure was 162 nM; with `Cc1ccc(-c2noc(C3CC(F)(F)C3)n2)cc1NC(=O)c1cnc2ccc(-c3cnn(CCN4CCOCC4)c3)cn12` [F50], 26 nM.
In the case of `Cc1ccc(-c2noc([C@H]3C[C@@](C)(O)C3)n2)cc1NC(=O)c1cnc2ccc(F)cn12` [F158], the IC50 stood at 175 nM.
On to `Cc1ccc(-c2noc(C3(N)CC3)n2)cc1NC(=O)c1cnc2ccccn12` [F131], for which the IC50 came out at 311 nM.
As for `Cc1ccc(-c2noc(C3CC(F)(F)C3)n2)cc1NC(=O)c1cnc2ccc(-n3cncc3C)cn12` [F163], the figure is 139 nM; as for `Cc1ccc(-c2noc([C@@H]3C[C@H]3F)n2)cc1NC(=O)c1cnc2ccccn12` [F113, N-(5-(5-((1S,2R)-2-fluorocyclopropyl)-1,2,4-oxadiazol-3-yl)-2-methylphenyl)imidazo[1,2-a]pyridine-3-carboxamide], 56 nM; as for `O=C(Nc1cc(-c2noc(C3CC(F)(F)C3)n2)ccc1F)c1cnc2ccccn12` [F134], 144 nM.
Regarding `Cc1ccc(-c2noc(C3CC(F)(F)C3)n2)cc1NC(=O)c1cnc2cc(C3CCNCC3)ccn12` [F169], the IC50 is 539 nM.
With `Cc1ccc(-c2noc(C3(O)CCC3)n2)cc1NC(=O)c1cnc2ccccn12` [F167] the figure was 144 nM.
As for `Cc1ccc(-c2noc(CNC(=O)OC3(C)CC3)n2)cc1NC(=O)c1cnc2cc(C(F)(F)F)ccn12` [F141], the figure is 391 nM; as for `Cc1ccc(-c2noc([C@@H]3C[C@@H]3F)n2)cc1NC(=O)c1cnc2ccccn12` [F101], 67 nM; as for `Cc1ccc(-c2noc(C3CC(F)(F)C3)n2)c(C)c1NC(=O)c1cnc2ccccn12` [F160], 293 nM.
With `Cc1ccc(-c2noc(C3CC(F)(F)C3)n2)cc1NC(=O)c1cnc2cc(N3CCOCC3)ccn12` [F59, N-(5-(5-(3,3-difluorocyclobutyl)-1,2,4-oxadiazol-3-yl)-2-methylphenyl)-7-morpholinoimidazo[1,2-a]pyridine-3-carboxamide], the half-inhibitory concentration (IC50) is 7 nM.
Turning to `Cc1ccc(-c2noc(C3CC4(C3)OCCCO4)n2)cc1NC(=O)c1cnc2ccccn12` [F10], the IC50 was found to be 52 nM.
With `Cc1ccc(-c2noc(C3(O)CC3)n2)cc1NC(=O)c1cnc2ccccn12` [F148] the figure was 305 nM.
With `Cc1ccc(-c2noc(C3CC(=CCCO)C3)n2)cc1NC(=O)c1cnc2ccccn12` (stereo not shown) [F32, N-(5-(5-(3-(3-hydroxypropylidene)cyclobutyl)-1,2,4-oxadiazol-3-yl)-2-methylphenyl)imidazo[1,2-a]pyridine-3-carboxamide] the figure was 25 nM.
As to `CC(=O)CCc1ccc2ncc(C(=O)Nc3cc(-c4noc(C5CC(F)(F)C5)n4)ccc3C)n2c1` [F53, N-(5-(5-(3,3-difluorocyclobutyl)-1,2,4-oxadiazol-3-yl)-2-methylphenyl)-6-(3-oxobutyl)imidazo[1,2-a]pyridine-3-carboxamide], the IC50 is 45 nM.
With `Cc1ccc(-c2noc(C3CC4(C3)OC[C@H](C)O4)n2)cc1NC(=O)c1cnc2ccccn12` (stereo partly shown) [F12] the figure was 12 nM.
Consider `CCON=C1CC(c2nc(-c3ccc(C)c(NC(=O)c4cnc5ccccn45)c3)no2)C1` (stereo not shown) [F14], for which the IC50 was determined as 12 nM.
With `Cc1ccc(-c2noc(C3CC(F)(F)C3)n2)cc1NC(=O)c1cnc2cc(C3CCN(S(C)(=O)=O)CC3)ccn12` [F49, N-(5-(5-(3,3-difluorocyclobutyl)-1,2,4-oxadiazol-3-yl)-2-methylphenyl)-7-(1-(methylsulfonyl)piperidin-4-yl)imidazo[1,2-a]pyridine-3-carboxamide] the figure was 33 nM; with `COCCOCc1ccc2ncc(C(=O)Nc3cc(-c4noc(C5CC(F)(F)C5)n4)ccc3C)n2c1` [F164], 101 nM; with `Cc1ccc(-c2noc(C3CC(F)(F)C3)n2)cc1NC(=O)c1cnc2ccc(N3CCOCC3)cn12` [F81], 26 nM.
As for `Cc1ccc(-c2noc(C3CC(F)C3)n2)cc1NC(=O)c1cnc2ccccn12` (stereo not shown) [F36, N-(5-(5-(3-fluorocyclobutyl)-1,2,4-oxadiazol-3-yl)-2-methylphenyl)imidazo[1,2-a]pyridine-3-carboxamide], the figure is 28 nM.
With `Cc1ccc(-c2noc([C@H]3C[C@H](NC(=O)OC(C)(C)C)C3)n2)cc1NC(=O)c1cnc2ccccn12` [F127] the figure was 353 nM.
In the case of `Cc1ccc(-c2noc([C@H]3CC3(F)F)n2)cc1NC(=O)c1cnc2ccccn12` (stereo in doubt) [F87, N-(5-(5-(2,2-difluorocyclopropyl)-1,2,4-oxadiazol-3-yl)-2-methylphenyl)imidazo[1,2-a]pyridine-3-carboxamide], the 50% inhibitory concentration (IC50) came to 46 nM.
For `Cc1ccc(-c2noc(C3(NS(C)(=O)=O)CC3)n2)cc1NC(=O)c1cnc2ccccn12` [F22], the half-inhibitory concentration (IC50) was determined as 56 nM.
As for `Cc1ccc(-c2noc([C@@H]3CC3(F)F)n2)cc1NC(=O)c1cnc2ccccn12` (stereo in doubt) [F88, N-(5-(5-(2,2-difluorocyclopropyl)-1,2,4-oxadiazol-3-yl)-2-methylphenyl)imidazo[1,2-a]pyridine-3-carboxamide], the figure is 66 nM; as for `Cc1ccc(-c2noc(C3(N)CCC3)n2)cc1NC(=O)c1cnc2ccccn12` [F137], 197 nM.
As for `Cc1ccc(-c2noc(C3CCC3)n2)cc1NC(=O)c1cnc2ccccn12` [F57], the figure is 23 nM; as for `Cc1ccc(-c2noc(CNC3CC(F)(F)C3)n2)cc1NC(=O)c1cnc2ccccn12` [F34], 16 nM.

The values above are taken from US9199981B2 (NOVARTIS AG, priority 2011, dated 2015).
